tested on: BaF3-FL KIT D816V or BaF3-FL KIT V560G/D816V cell line; assay: Cell-based assays of c-Kit mutant kinase activity (cell growth, ATPlite); settings: at least one of the c-kit cell assays of Example 26
Procedure, shortened: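 BaF3 cells dependent on full-length human KIT (D816V or V560G/D816V) seeded at 1×10^4 cells/well in RPMI with 10% FBS. Eight-point 1:3 dilutions from 10 μM top final (0.2% DMSO), 3 days at 37° C., 5% CO2. ATPlite luminescence gave IC50.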

IC50, < 10 µM:
COc1ccc(-c2cc3cc(NC(=O)c4n[nH]c(C)c4C)cnc3[nH]2)c(OC)n1 [P-2242, N-(2-(2,6-dimethoxypyridin-3-yl)-1H-pyrrolo[2,3-b]pyridin-5-yl)-4,5-dimethyl-1H-pyrazole-3-carboxamide]
Cc1[nH]nc(C(=O)Nc2cnc3[nH]c(-c4cncc(C5CC5)c4)cc3c2)c1C [P-2243, N-(2-(5-cyclopropylpyridin-3-yl)-1H-pyrrolo[2,3-b]pyridin-5-yl)-4,5-dimethyl-1H-pyrazole-3-carboxamide]
Cc1cc(-c2cc3cc(NC(=O)c4n[nH]c(C)c4C)cnc3[nH]2)cnc1C [P-2244, N-(2-(5,6-dimethylpyridin-3-yl)-H-pyrrolo[2,3-b]pyridin-5-yl)-4,5-dimethyl-1H-pyrazole-3-carboxamide]
Cc1[nH]nc(C(=O)Nc2cnc3[nH]c(-c4ccnc(F)c4)cc3c2)c1C [P-2245, N-(2-(2-fluoropyridin-4-yl)-1H-pyrrolo[2,3-b]pyridin-5-yl)-4,5-dimethyl-1H-pyrazole-3-carboxamide]
Cc1cc(-c2cc3cc(NC(=O)c4n[nH]c(C)c4C)cnc3[nH]2)ccn1 [P-2246, 4,5-dimethyl-N-(2-(2-methylpyridin-4-yl)-1H-pyrrolo[2,3-b]pyridin-5-yl)-1H-pyrazole-3-carboxamide]
CCOc1cc(-c2cc3cc(NC(=O)c4n[nH]c(C)c4C)cnc3[nH]2)ccn1 [P-2247, N-(2-(2-ethoxypyridin-4-yl)-1H-pyrrolo[2,3-b]pyridin-5-yl)-4,5-dimethyl-1H-pyrazole-3-carboxamide]
Cc1[nH]nc(C(=O)Nc2cnc3[nH]c(-c4ccnc(OC(C)C)c4)cc3c2)c1C [P-2248, N-(2-(2-isopropoxypyridin-4-yl)-1H-pyrrolo[2,3-b]pyridin-5-yl)-4,5-dimethyl-1H-pyrazole-3-carboxamide]
COc1nccc(-c2cc3cc(NC(=O)c4n[nH]c(C)c4C)cnc3[nH]2)c1Cl [P-2249, N-(2-(3-chloro-2-methoxypyridin-4-yl)-1H-pyrrolo[2,3-b]pyridin-5-yl)-4,5-dimethyl-1H-pyrazole-3-carboxamide]
Cc1[nH]nc(C(=O)Nc2cnc3[nH]c(-c4ccncc4Cl)cc3c2)c1C [P-2250, N-(2-(3-chloropyridin-4-yl)-1H-pyrrolo[2,3-b]pyridin-5-yl)-4,5-dimethyl-1H-pyrazole-3-carboxamide]
Cc1cnccc1-c1cc2cc(NC(=O)c3n[nH]c(C)c3C)cnc2[nH]1 [P-2251, 4,5-dimethyl-N-(2-(3-methylpyridin-4-yl)-1H-pyrrolo[2,3-b]pyridin-5-yl)-1H-pyrazole-3-carboxamide]
Cc1[nH]nc(C(=O)Nc2cnc3[nH]c(-c4cncc(F)c4)cc3c2)c1C [P-2253, N-(2-(5-fluoropyridin-3-yl)-1H-pyrrolo[2,3-b]pyridin-5-yl)-4,5-dimethyl-1H-pyrazole-3-carboxamide]
Cc1[nH]nc(C(=O)Nc2cnc3[nH]c(-c4cncc(C(F)(F)F)c4)cc3c2)c1C [P-2254, 4,5-dimethyl-N-(2-(5-(trifluoromethyl)pyridin-3-yl)-1H-pyrrolo[2,3-b]pyridin-5-yl)-1H-pyrazole-3-carboxamide]
Cc1[nH]nc(C(=O)Nc2cnc3[nH]c(-c4ccc(C5CC5)nc4)cc3c2)c1C [P-2255, N-(2-(6-cyclopropylpyridin-3-yl)-1H-pyrrolo[2,3-b]pyridin-5-yl)-4,5-dimethyl-1H-pyrazole-3-carboxamide]
CCc1cncc(-c2cc3cc(NC(=O)c4n[nH]c(C)c4C)cnc3[nH]2)c1 [P-2256, N-(2-(5-ethylpyridin-3-yl)-1H-pyrrolo[2,3-b]pyridin-5-yl)-4,5-dimethyl-1H-pyrazole-3-carboxamide]
Cc1[nH]nc(C(=O)Nc2cnc3[nH]c(-c4ccccc4C(F)F)cc3c2)c1C [P-2257, N-(2-(2-(difluoromethyl)phenyl)-1H-pyrrolo[2,3-b]pyridin-5-yl)-4,5-dimethyl-1H-pyrazole-3-carboxamide]
Cc1cc(Cl)ccc1-c1cc2cc(NC(=O)c3n[nH]c(C)c3C)cnc2[nH]1 [P-2258]
Cc1cc(F)ccc1-c1cc2cc(NC(=O)c3n[nH]c(C)c3C)cnc2[nH]1 [P-2259, N-(2-(4-fluoro-2-methylphenyl)-1H-pyrrolo[2,3-b]pyridin-5-yl)-4,5-dimethyl-1H-pyrazole-3-carboxamide]
Cc1[nH]nc(C(=O)Nc2cnc3[nH]c(-c4ccc(F)cc4F)cc3c2)c1C [P-2260, N-(2-(2,4-difluorophenyl)-1H-pyrrolo[2,3-b]pyridin-5-yl)-4,5-dimethyl-1H-pyrazole-3-carboxamide]
Cc1[nH]nc(C(=O)Nc2cnc3[nH]c(-c4ccc(F)c(C#N)c4F)cc3c2)c1C [P-2261, N-(2-(3-cyano-2,4-difluorophenyl)-1H-pyrrolo[2,3-b]pyridin-5-yl)-4,5-dimethyl-1H-pyrazole-3-carboxamide]
Cc1[nH]nc(C(=O)Nc2cnc3[nH]c(-c4ccc(F)c(C)c4C)cc3c2)c1C [P-2262, N-(2-(4-fluoro-2,3-dimethylphenyl)-1H-pyrrolo[2,3-b]pyridin-5-yl)-4,5-dimethyl-1H-pyrazole-3-carboxamide]
Cc1[nH]nc(C(=O)Nc2cnc3[nH]c(-c4ccccc4OC(F)F)cc3c2)c1C [P-2263, N-(2-(2-(difluoromethoxy)phenyl)-1H-pyrrolo[2,3-b]pyridin-5-yl)-4,5-dimethyl-1H-pyrazole-3-carboxamide]
Cc1[nH]nc(C(=O)Nc2cnc3[nH]c(-c4cccc(F)c4OC(F)F)cc3c2)c1C [P-2264, N-(2-(2-(difluoromethoxy)-3-fluorophenyl)-1H-pyrrolo[2,3-b]pyridin-5-yl)-4,5-dimethyl-1H-pyrazole-3-carboxamide]
Cc1[nH]nc(C(=O)Nc2cnc3[nH]c(C4=CCOCC4)cc3c2)c1C [P-2265, N-(2-(3,6-dihydro-2H-pyran-4-yl)-1H-pyrrolo[2,3-b]pyridin-5-yl)-4,5-dimethyl-1H-pyrazole-3-carboxamide]
Cc1[nH]nc(C(=O)Nc2cnc3[nH]c(C4=CC(C)(C)NC(C)(C)C4)cc3c2)c1C [P-2266, 4,5-dimethyl-N-(2-(2,2,6,6-tetramethyl-1,2,3,6-tetrahydropyridin-4-yl)-1H-pyrrolo[2,3-b]pyridin-5-yl)-1H-pyrazole-3-carboxamide]
Cc1[nH]nc(C(=O)Nc2cnc3[nH]c(-c4cccc5c4OC(F)(F)O5)cc3c2)c1C [P-2267, N-(2-(2,2-difluorobenzo[d][1,3]dioxol-4-yl)-1H-pyrrolo[2,3-b]pyridin-5-yl)-4,5-dimethyl-1H-pyrazole-3-carboxamide]
Cn1ncc2c(C(=O)Nc3cnc4[nH]c(-c5ccccc5)cc4c3)cccc21 [P-2298, 1-methyl-N-(2-phenyl-1H-pyrrolo[2,3-b]pyridin-5-yl)indazole-4-carboxamide]
O=C(Nc1cnc2[nH]c(-c3ccccc3)cc2c1)c1cccc2[nH]ccc12 [P-2299, N-(2-phenyl-1H-pyrrolo[2,3-b]pyridin-5-yl)-1H-indole-4-carboxamide]
O=C(Nc1cnc2[nH]c(-c3ccccc3)cc2c1)c1cccc2[nH]cnc12 [P-2300, N-(2-phenyl-1H-pyrrolo[2,3-b]pyridin-5-yl)-1H-benzimidazole-4-carboxamide]
Cc1cc2cc(NC(=O)c3[nH]nc(C)c3C)cnc2[nH]1 [P-2302, 3,4-dimethyl-N-(2-methyl-1H-pyrrolo[2,3-b]pyridin-5-yl)-1H-pyrazole-5-carboxamide]
O=C(O)c1ccc(C(=O)Nc2cnc3[nH]c(-c4ccccc4)cc3c2)cc1 [P-2303, 4-[(2-phenyl-1H-pyrrolo[2,3-b]pyridin-5-yl)carbamoyl]benzoic acid]
Cc1n[nH]c(C(=O)N(C)c2cnc3[nH]c(-c4ccccc4)cc3c2)c1C [P-2304, N,3,4-trimethyl-N-(2-phenyl-1H-pyrrolo[2,3-b]pyridin-5-yl)-1H-pyrazole-5-carboxamide]
Cc1n[nH]c(C(=O)Nc2cnc3[nH]c(-c4cccc5c4OCCO5)cc3c2)c1C [P-2305, N-[2-(2,3-dihydro-1,4-benzodioxin-5-yl)-1H-pyrrolo[2,3-b]pyridin-5-yl]-3,4-dimethyl-1H-pyrazole-5-carboxamide]
Cc1n[nH]c(C(=O)Nc2cnc3[nH]c(-c4cnn(C5CCN(C(=O)OC(C)(C)C)CC5)c4)cc3c2)c1C [P-2306, tert-butyl 4-[4-[5-[(3,4-dimethyl-1H-pyrazole-5-carbonyl)amino]-1H-pyrrolo[2,3-b]pyridin-2-yl]pyrazol-1-yl]piperidine-1-carboxylate]
Cc1n[nH]c(C(=O)Nc2cnc3[nH]c(C4=CCCCC4)cc3c2)c1C [P-2307, N-[2-(cyclohexen-1-yl)-1H-pyrrolo[2,3-b]pyridin-5-yl]-3,4-dimethyl-1H-pyrazole-5-carboxamide]

Source: US10301280B2 (Plexxikon Inc., priority 2012, dated 2019)
